Tests used:
DU-145 = assay: Antiproliferative activity against human DU-145 cells assessed as inhibition of cell growth incubated for 72 hrs by MTT assay; assay type: functional, cell-based; details: DU-145, 72 h
MCF7R = assay: Antiproliferative activity against paclitaxel-resistant human MCF7R cells assessed as inhibition of cell growth incubated for 72 hrs by MTT assay; assay type: functional, cell-based
MDA-MB-231 = assay: cells; details: Homo sapiens, MDA-MB-231, 72 h
HCT-116 = assay: cells; details: Homo sapiens, HCT-116, 72 h
Description: Antiproliferative activity against human HCT-116 cells assessed as inhibition of cell growth incubated for 72 hrs by MTT assay

A549 [1] = assay: Antitumor activity against paclitaxel-resistant human A549 cells xenografted in BALB/c nude mouse assessed as tumor growth inhibition at 24 mg/kg, po administered once daily and measured twice a week relative to control; assay type: functional; details: read-out: TGI
BGC-823 = assay: Antiproliferative activity against human BGC-823 cells assessed as inhibition of cell growth incubated for 72 hrs by MTT assay; assay type: functional, cell-based; details: BGC-823, 72 h
HCT-8 = assay: Antiproliferative activity against human HCT-8 cells assessed as inhibition of cell growth incubated for 72 hrs by MTT assay; assay type: functional, cell-based; details: HCT-8, 72 h
A549 [2] = assay: Antiproliferative activity against paclitaxel-resistant human A549 cells assessed as inhibition of cell growth incubated for 72 hrs by MTT assay; assay type: functional, cell-based; details: A549, 72 h
NCI-H1299 = assay: Antiproliferative activity against human NCI-H1299 cells assessed as inhibition of cell growth incubated for 72 hrs by MTT assay; assay type: functional, cell-based; details: NCI-H1299, 72 h
SW1990 = assay: Antiproliferative activity against human SW1990 cells assessed as inhibition of cell growth incubated for 72 hrs by MTT assay; assay type: functional, cell-based; details: SW1990, 72 h
MCF7 = assay: cells; details: Homo sapiens, MCF7, 72 h
Description: Antiproliferative activity against human MCF7 cells assessed as inhibition of cell growth incubated for 72 hrs by MTT assay

HUVEC = assay: Anti-angiogenesis activity against HUVEC cells assessed as inhibition of cell growth incubated for 72 hrs by MTT assay; assay type: functional, cell-based; details: Homo sapiens
HepG2 = assay: cells; details: Homo sapiens, HepG2, 72 h
HGC-27 = assay: Antiproliferative activity against human HGC-27 cells assessed as inhibition of cell growth incubated for 72 hrs by MTT assay; assay type: functional, cell-based; details: HGC-27, 72 h
NCI-H1437 = assay: Antiproliferative activity against human NCI-H1437 cells assessed as inhibition of cell growth incubated for 72 hrs by MTT assay; assay type: functional, cell-based; details: NCI-H1437, 72 h
B16-F10 = assay: Antiproliferative activity against mouse B16-F10 cells assessed as inhibition of cell growth incubated for 72 hrs by MTT assay; assay type: functional, cell-based; details: B16-F10, 72 h
NCI-H460 = assay: cells; details: Homo sapiens, NCI-H460, 72 h
Description: Antiproliferative activity against human NCI-H460 cells assessed as inhibition of cell growth incubated for 72 hrs by MTT assay

A549 [3] = assay: cells; details: Homo sapiens, A549, 72 h

Structure (SMILES)	IC50 (DU-145)	also measured
CCCCc1ccc(S(=O)(=O)Nc2cc(C(=O)NCc3cccnc3)ccc2C)cc1	> 10 µM	
Cc1ccc(S(=O)(=O)Nc2cc(C(=O)NC(C)c3cnccn3)ccc2C)cc1 (stereo not drawn)	0.51 µM	
CCCc1ccc(S(=O)(=O)Nc2cc(C(=O)NCc3cccnc3)ccc2C)cc1	9.7 µM	
Cc1ccc(S(=O)(=O)Nc2cc(Cl)cc(C(=O)NCc3cccnc3)c2)cc1	0.34 µM	
Cc1ccc(S(=O)(=O)Nc2cc(C(=O)NCc3cccnc3)ccc2C)c(C)c1	0.5 µM	
Cc1ccc(C(=O)NCc2cccnc2)cc1NS(=O)(=O)c1ccccc1	> 10 µM	
Cc1ccc(S(=O)(=O)Nc2cc(C#N)cc(C(=O)NCc3cccnc3)c2)cc1	> 10 µM	
Cc1ccc(C(=O)NCc2cccnc2)cc1NS(=O)(=O)c1ccc2c(c1)CCC2	0.9 µM	
Cc1ccc(C(=O)NCc2cccnc2)cc1NS(=O)(=O)c1ccc(C(F)(F)F)cc1	5.3 µM	
Cc1ccc(C(=O)NCc2cccnc2)cc1NS(=O)(=O)c1ccc2c(c1)CCO2	1.2 µM	
COc1ccc(NS(=O)(=O)c2ccc(C)cc2)cc1C(=O)NCc1cccnc1	> 10 µM	
CC(=O)O[C@H]1C(=O)[C@@]2(C)[C@H]([C@H](OC(=O)c3ccccc3)[C@]3(O)C[C@H](OC(=O)[C@H](O)[C@@H](NC(=O)c4ccccc4)c4ccccc4)C(C)=C1C3(C)C)[C@]1(OC(C)=O)CO[C@@H]1C[C@@H]2O [PACLITAXEL]	< 0.001 µM	IC50 (MCF7R): 0.19 µM; IC50 (MDA-MB-231): < 0.001 µM; IC50 (HCT-116): < 0.001 µM; inhibition in vivo at 24 mg/kg (A549 [1]): 53.8%; IC50 (BGC-823): < 0.001 µM; IC50 (HCT-8): 0.086 µM; IC50 (A549 [2]): 0.39 µM; IC50 (NCI-H1299): 0.009 µM; IC50 (SW1990): 0.01 µM; IC50 (MCF7): < 0.001 µM; IC50 (HUVEC): 0.071 µM; IC50 (HepG2): < 0.001 µM; IC50 (HGC-27): < 0.001 µM; IC50 (NCI-H1437): < 0.001 µM; IC50 (B16-F10): < 0.001 µM; IC50 (NCI-H460): < 0.001 µM
Cc1ccc(C(=O)NCc2cccnc2)cc1NS(=O)(=O)c1ccc(OC(F)(F)F)cc1	> 10 µM	
Cc1ccc(S(=O)(=O)Nc2cc(C)cc(C(=O)NCc3cccnc3)c2)cc1	0.34 µM	
Cc1ccc(S(=O)(=O)Nc2cc(F)cc(C(=O)NCc3cccnc3)c2)cc1	0.9 µM	
Cc1ccc(CNC(=O)c2ccc(C)c(NS(=O)(=O)c3ccc(C4CC4)cc3)c2)cn1	0.012 µM	
Cc1ccc(C(=O)NCc2cccnc2)cc1NS(=O)(=O)c1ccc2c(c1)OCO2	0.61 µM	

Structure (SMILES)	IC50 (DU-145)	also measured
Cc1ccc(S(=O)(=O)Nc2ccc(Cl)c(C(=O)NCc3cccnc3)c2)cc1	> 10 µM	
Cc1ccc(C(=O)NCc2cccnc2)cc1NS(=O)(=O)c1ccc(C(C)(C)C)cc1	> 10 µM	
COc1cc(NS(=O)(=O)c2ccc(C)cc2)cc(C(=O)NCc2cccnc2)c1	6.2 µM	
Cc1ccc(C(=O)NCc2cccnc2)cc1NS(=O)(=O)c1ccc2ccccc2c1	1 µM	
CNC(=O)c1ccc(C)c(NS(=O)(=O)c2ccc(C)cc2)c1	> 10 µM	
Cc1ccc(S(=O)(=O)Nc2ccc(F)c(C(=O)NCc3cccnc3)c2)cc1	> 10 µM	
Cc1ccc(S(=O)(=O)Nc2cc(C(=O)NCc3cccnc3)cc(C(F)(F)F)c2)cc1	> 10 µM	
Cc1ccc(S(=O)(=O)Nc2cc(C(=O)NC3(c4cnccn4)CC3)ccc2C)cc1	0.8 µM	
Cc1ccc(S(=O)(=O)Nc2ccc(C)c(C(=O)NCc3cccnc3)c2)cc1	2 µM	
CCOc1ccc(S(=O)(=O)Nc2cc(C(=O)NCc3cccnc3)ccc2C)cc1	0.86 µM	
Cc1ccc(C(=O)NCc2cccnc2)cc1NS(=O)(=O)c1ccc(C2CC2)cc1	0.05 µM	
Cc1ccc(S(=O)(=O)Nc2cc(C(=O)NCc3cccnc3)ccc2C(F)(F)F)cc1	> 10 µM	
Cc1ccc(C(=O)NCc2cccnc2)cc1NS(=O)(=O)c1ccc2c(c1)OCCO2	0.42 µM	
Cc1ccc(S(=O)(=O)Nc2cccc(C(=O)NCc3cccnc3)c2)cc1	0.7 µM	
COc1cc2c(c(OC)c1OC)-c1ccc(OC)c(=O)cc1[C@@H](NC(C)=O)CC2 [COLCHICINE]	0.003 µM	IC50 (MDA-MB-231): 0.023 µM; IC50 (HCT-116): 0.003 µM; IC50 (BGC-823): 0.016 µM; IC50 (HCT-8): 0.022 µM; IC50 (NCI-H1299): 0.004 µM; IC50 (SW1990): 0.01 µM; IC50 (MCF7): 0.006 µM; IC50 (A549 [3]): 0.03 µM; IC50 (HepG2): 0.002 µM; IC50 (HGC-27): 0.003 µM; IC50 (NCI-H1437): 0.002 µM; IC50 (B16-F10): 0.003 µM; IC50 (NCI-H460): 0.054 µM
Cc1ccc(S(=O)(=O)Nc2cc(C(=O)NCc3cccnc3)ccc2C)cc1C	0.97 µM	
Cc1ccc(C(=O)NCc2cccnc2)cc1NS(=O)(=O)c1ccc(C#N)cc1	> 10 µM	

Second part, led by results:

IC50 (DU-145)	Structure (SMILES)	also measured
> 10 µM	Cc1ccc(S(=O)(=O)Nc2cc(C(=O)NCc3ccccc3)ccc2C)cc1	
0.8 µM	Cc1ccc(S(=O)(=O)Nc2cc(C(=O)NCc3cccnc3)ccc2Cl)cc1	
0.79 µM	Cc1ccc(S(=O)(=O)Nc2cc(C(=O)NCc3cccnc3)ccc2F)cc1	
0.18 µM	COc1ccc(S(=O)(=O)Nc2cc(C(=O)NCc3cccnc3)ccc2C)cc1	
3.5 µM	Cc1ccc(C(=O)NCc2cccnc2)cc1NS(=O)(=O)c1ccc(F)cc1	
0.86 µM	CCc1ccc(C(=O)NCc2cccnc2)cc1NS(=O)(=O)c1ccc(C)cc1	
1 µM	Cc1ccc(C(=O)NCc2cccnc2)cc1NS(=O)(=O)c1ccc(C(C)C)cc1	
1.7 µM	Cc1ccc(S(=O)(=O)Nc2cc(C(=O)NCc3ccncc3)ccc2C)cc1	
0.93 µM	Cc1ccc(C(=O)NCc2cccnc2)cc1NS(=O)(=O)c1ccc(Cl)cc1	
0.04 µM	CCc1ccc(S(=O)(=O)Nc2cc(C(=O)NCc3cccnc3)ccc2C)cc1	
> 10 µM	Cc1ccc(S(=O)(=O)Nc2cc(C(=O)NCCc3cccnc3)ccc2C)cc1	
0.011 µM	CCc1ccc(S(=O)(=O)Nc2cc(C(=O)NCc3ccc(C)nc3)ccc2C)cc1	
9.5 µM	COc1ccc(C(=O)NCc2cccnc2)cc1NS(=O)(=O)c1ccc(C)cc1	
0.2 µM	Cc1ccc(S(=O)(=O)Nc2cc(C(=O)NCc3ccc(C(F)(F)F)nc3)ccc2C)cc1	
0.12 µM	Cc1ccc(S(=O)(=O)Nc2cc(C(=O)NCc3cccnc3)ccc2C)cc1	
0.065 µM	Cc1ccc(S(=O)(=O)Nc2cc(C(=O)NCc3ccc(Cl)nc3)ccc2C)cc1	
> 10 µM	Cc1ccc(S(=O)(=O)Nc2cc(C(=O)NCc3ccccn3)ccc2C)cc1	
> 10 µM	Cc1ccc(S(=O)(=O)Nc2cc(C(=O)Nc3cccnc3)ccc2C)cc1	
1.3 µM	Cc1ccc(S(=O)(=O)Nc2cc(C(=O)NCc3ccnnc3)ccc2C)cc1	
> 10 µM	Cc1ccc(S(=O)(=O)Nc2cc(C(=O)NCc3cnccn3)ccc2C)cc1	
